Data reported in PubChem BioAssay (NCI).
Several values for one entry are separate records, joined by “and”; a condition that tells them apart may be missing. Equal values may be shown once.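 Values below derive from 48-hour exposures of cells grown in 96-well plates, with endpoints linearly interpolated between the two concentrations bracketing the appropriate inhibition level. The concentration for 50% growth inhibition is given as GI50. Definition used: TGI = concentration required for complete inhibition of growth.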

Columns and labels:
Experiment in all cases: inhibition of tumour cell growth, NCI panel, 48 h
SK-MEL-2 melanoma = system: SK-MEL-2 melanoma
COLO 205 colon = system: COLO 205 colon
CCRF-CEM leukemia = system: CCRF-CEM leukemia
HL-60(TB) leukemia = system: HL-60(TB) leukemia
HS 578T breast = system: HS 578T breast
BT-549 breast = system: BT-549 breast
OVCAR-4 ovarian = system: OVCAR-4 ovarian
NCI-H460 lung = system: NCI-H460 lung
HCC-2998 colon = system: HCC-2998 colon
NCI-H23 lung = system: NCI-H23 lung
SNB-19 CNS = system: SNB-19 CNS
SR leukemia = system: SR leukemia
RXF 393 renal = system: RXF 393 renal
SNB-75 CNS = system: SNB-75 CNS
T-47D breast = system: T-47D breast
SK-MEL-28 melanoma = system: SK-MEL-28 melanoma
MDA-MB-468 breast = system: MDA-MB-468 breast
PC-3 prostate = system: PC-3 prostate
UACC-62 melanoma = system: UACC-62 melanoma
NCI/ADR-RES ovarian = system: NCI/ADR-RES ovarian
U251 CNS = system: U251 CNS
DU-145 prostate = system: DU-145 prostate
MALME-3M melanoma = system: MALME-3M melanoma
HT29 colon = system: HT29 colon
OVCAR-8 ovarian = system: OVCAR-8 ovarian
OVCAR-5 ovarian = system: OVCAR-5 ovarian
SF-539 CNS = system: SF-539 CNS
MDA-MB-435 = system: MDA-MB-435
K-562 leukemia = system: K-562 leukemia
SK-OV-3 ovarian = system: SK-OV-3 ovarian
HOP-92 NSCLC = system: HOP-92 NSCLC
A549 NSCLC = system: A549 NSCLC
M14 melanoma = system: M14 melanoma
MOLT-4 leukemia = system: MOLT-4 leukemia
EKVX NSCLC = system: EKVX NSCLC
UACC-257 melanoma = system: UACC-257 melanoma
SN12C renal = system: SN12C renal
HCT-116 colon = system: HCT-116 colon
KM12 colon = system: KM12 colon
HOP-62 NSCLC = system: HOP-62 NSCLC
SF-268 CNS = system: SF-268 CNS
RPMI-8226 leukemia = system: RPMI-8226 leukemia
OVCAR-3 ovarian = system: OVCAR-3 ovarian
SF-295 CNS = system: SF-295 CNS
MCF7 breast = system: MCF7 breast
HCT-15 colon = system: HCT-15 colon
NCI-H226 lung = system: NCI-H226 lung
LOX IMVI melanoma = system: LOX IMVI melanoma
MDA-MB-231 breast = system: MDA-MB-231 breast
ACHN renal = system: ACHN renal
NCI-H522 lung = system: NCI-H522 lung

## CN1CCN(C(=O)Oc2cc3c(c4ccccc24)[C@H](CCl)CN3C(=O)c2cc3cc(OCCCN4CCC4)ccc3[nH]2)[C@H]2CSSC[C@H]21
SK-MEL-2 melanoma
  GI50: 28.5 nM and 31.3 nM
  TGI: 62.6 nM and 53.8 nM
COLO 205 colon
  GI50: 25.5 nM and 21.7 nM
  TGI: 106 nM and 50.4 nM
CCRF-CEM leukemia
  GI50: 42 nM and 18.4 nM
HL-60(TB) leukemia
  GI50: 49.8 nM and 28.5 nM
  TGI: 368 nM
HS 578T breast
  GI50: 100 nM and 141 nM
  TGI: 591 nM and 810 nM
BT-549 breast
  GI50: 19.2 nM and 54 nM
  TGI: 74.1 nM and 348 nM
OVCAR-4 ovarian
  GI50: 43.3 nM and 73.5 nM
  TGI: 553 nM and 446 nM
NCI-H460 lung
  GI50: 1.63 nM
  TGI: 268 nM
HCC-2998 colon
  GI50: 16 nM and 22 nM
  TGI: 47.3 nM and 52.7 nM
NCI-H23 lung
  GI50: 6.68 nM and 4.34 nM
  TGI: 25.1 nM and 19.6 nM
SNB-19 CNS
  GI50: 23.2 nM and 17.9 nM
  TGI: 2460 nM and 314 nM
SR leukemia
  GI50: 4.72 nM
RXF 393 renal
  GI50: 17.7 nM and 4.25 nM
  TGI: 37.9 nM and 14.5 nM
SNB-75 CNS
  GI50: 26 nM
  TGI: 137 nM
T-47D breast
  GI50: 28.6 nM
  TGI: 598 nM
SK-MEL-28 melanoma
  GI50: 18.7 nM
  TGI: 40 nM
MDA-MB-468 breast
  GI50: 5.3 nM
  TGI: 19.7 nM
PC-3 prostate
  GI50: 18 nM and 34 nM
  TGI: > 15300 nM
UACC-62 melanoma
  GI50: 10.5 nM and 4.24 nM
  TGI: 26.4 nM and 21.3 nM
NCI/ADR-RES ovarian
  GI50: 13.5 nM
  TGI: 53.6 nM
U251 CNS
  GI50: 18 nM and 3.56 nM
  TGI: 2300 nM
DU-145 prostate
  GI50: 4.29 nM and 5.32 nM
MALME-3M melanoma
  GI50: 18.2 nM and 19.3 nM
  TGI: 39.6 nM and 40.9 nM
HT29 colon
  GI50: 19.7 nM
OVCAR-8 ovarian
  GI50: 15.3 nM and 12.1 nM
OVCAR-5 ovarian
  GI50: 29 nM and 22.7 nM
  TGI: 360 nM and 86.1 nM
SF-539 CNS
  GI50: 16.8 nM and 22.4 nM
  TGI: 40.6 nM and 55.4 nM
MDA-MB-435
  GI50: 20.3 nM and 25.1 nM
  TGI: 47.9 nM and 55.4 nM
K-562 leukemia
  GI50: 24.4 nM and 17.2 nM
  TGI: > 15300 nM
SK-OV-3 ovarian
  GI50: 23.5 nM and 29.9 nM
  TGI: 59.6 nM and 128 nM
HOP-92 NSCLC
  GI50: 67.1 nM
A549 NSCLC
  GI50: 4.96 nM
  TGI: > 15300 nM
M14 melanoma
  GI50: 15.9 nM and 14.2 nM
  TGI: 70 nM and 46.2 nM
MOLT-4 leukemia
  GI50: 23.5 nM and 14.2 nM
  TGI: 324 nM
EKVX NSCLC
  GI50: 20.4 nM and 27.3 nM
  TGI: 59.6 nM and 70.7 nM
UACC-257 melanoma
  GI50: 27.3 nM and 34.4 nM
  TGI: 135 nM and 86.5 nM
SN12C renal
  GI50: 19.4 nM and 11.6 nM
  TGI: 459 nM and 222 nM
HCT-116 colon
  GI50: 8.63 nM and 45.7 nM
  TGI: > 15300 nM
KM12 colon
  GI50: 46.2 nM and 90.4 nM
HOP-62 NSCLC
  GI50: 9.09 nM and 9.6 nM
  TGI: 33.2 nM and 45.3 nM
SF-268 CNS
  GI50: 19.8 nM and 20.1 nM
  TGI: 84.4 nM and 173 nM
RPMI-8226 leukemia
  GI50: 36 nM and 35.1 nM
OVCAR-3 ovarian
  GI50: 28.1 nM and 50.5 nM
  TGI: 88.3 nM and 292 nM
SF-295 CNS
  GI50: 10.6 nM and 2.14 nM
  TGI: 52 nM and 5.86 nM
MCF7 breast
  GI50: 1.53 nM
  TGI: 1530 nM
HCT-15 colon
  GI50: 13.1 nM and 11 nM
  TGI: 40.7 nM and 50.6 nM
NCI-H226 lung
  GI50: 31.8 nM
  TGI: 1150 nM
LOX IMVI melanoma
  GI50: 3.15 nM
  TGI: 24.8 nM
MDA-MB-231 breast
  GI50: 32.1 nM and 37.8 nM
  TGI: 92.9 nM and 83.7 nM
ACHN renal
  GI50: 2.5 nM
  TGI: 8.71 nM
NCI-H522 lung
  GI50: 30.6 nM and 28.3 nM
  TGI: 154 nM and 75.8 nM
